Measurements reported in patent publication US11813339B2, “Method of use for therapeutic bone agents” (IGL Pharma, Inc., priority 2017, dated 2023).
Where two headings read alike, the source gives them in different places.

Legend:
[1] = test system: prostate and breast bone metastases; conditions: cited from earlier work; for long-lived impurities (Eu isotopes) in patients on multiple doses: high-resolution gamma spectroscopy whole body counters
[2] = test system: tumor; assay: Ascending dose trial in dogs (MTD); assay type: in vivo; conditions: for maximum tolerated dose: dogs
Text: The maximum tolerated dose is 1.75-2.0 mCi/kg; whereas for Sm-153-EDTMP the maximum tolerated dose was 1.0 mCi/kg. Stable or improved indices were experienced by 7 of 12 dogs.

[3] = Residual activity in bone cancer patients after repeated doses, NaI crystal detection; assay type: in vivo; conditions: 30 mCi doses, after receiving 7 doses (of 10); activity due to long-lived radionuclidic impurities
Text: The Sm-153 prepared as in Example A was used to prepare doses of Sm-153-EDTMP. These doses were used to treat patients suffering from bone cancer. Patients were repeatedly treated (10 times) with 30 mCi of Sm-153-EDTMP as prepared in this example. The first 5 doses were given at 3 month intervals, and the second five doses given at 6 month intervals. After the decay of Sm-153, a NaI crystal was used to detect the amount of residual activity in the patients. […] The activity was due to long-lived radionuclidic impurities created during the target irradiation process.

[4] = test system: osteosarcoma; assay: Treatment of dogs with osteosarcoma with LSA Sm-153-DOTMP; assay type: in vivo
Description: Seven dogs with osteosarcoma were treated with the Sm-153-DOTMP made from LSA Sm-153 of Example 1 at 1 mCi/kg.

[5] = about 550 patients, repeated 30 mCi doses

| Substance | lesion response [1, 5] | survival [1, 5] | long-lived impurities (Eu isotopes) in patients on multiple doses [1] | long-lived impurities (Eu isotopes) in patients on multiple doses ([1]; listed as HSA Sm-153-EDTMP) | maximum tolerated dose [2] | residual activity detected in patients after decay of Sm-153 [3] | myelosuppression relative to similar dogs treated with 1 mCi/kg of HSA Sm-153-EDTMP ([4]; evidenced from the nadir in platelets and neutrophils) | uptake in the tumor ([4]; seven dogs with osteosarcoma, 1 mCi/kg) | stable or improved indices ([2]; ascending dose trial) | uptake in tumor ([2]; ascending dose trial of 13 dogs starting at 1.5 mCi/kg) |
| --- | --- | --- | --- | --- | --- | --- | --- | --- | --- | --- |
| Sm-153-ethylenediaminetetramethylenephosphonic acid [Sm-153-EDTMP] | lesion regression | improved survival | increases with every treatment | apparent | 1.0 mCi/kg | significant amounts of activity detected in patients, which increased with each dose given thereafter | – | – | – | – |
| Sm-153 1,4,7,10-tetraazacyclododecanetetramethylenephosphonic acid [LSA Sm-153-DOTMP] | – | – | – | – | 1.75-2.0 mCi/kg | – | about one half | uptake in the tumor for all dogs | 7 of 12 | uptake in tumor for all seven dogs tested |
